“Also recorded” adds a separate entry of the source.
Legend:
[1] = Compound stability (observation); assay type: physicochemical; conditions: printed in the EC50 column of Table 1
Nur77 = target: T1, Nur77 (Homo sapiens, UniProt P22736); test: Gal4 hybrid reporter gene assay, selectivity profiling (Nur77); assay type: cell-based; conditions: result in words, at 10 µM
T1 construct: expressed in transfected cells; host or cells: HEK293T
Procedure: Hybrid reporter gene assays. Nurr1 modulation was determined in a Gal4 hybrid reporter gene assay in HEK293T cells (German Collection of Microorganisms and Cell Culture GmbH, DSMZ) using pFR-Luc (Stratagene, La Jolla, CA, USA; reporter), pRL-SV40 (Promega, Madison, WI, USA; internal control) and pFA-CMV-hNurr1-LBD^14, coding for the hinge region and ligand binding domain of the canonical isoform of human Nurr1. […] After 24 h, medium was changed to Opti-MEM without supplements and cells were transiently transfected using Lipofectamine LTX reagent (Invitrogen, Carlsbad, CA, USA) according to the manufacturer's protocol. Five hours after transfection, cells were incubated with the test compounds in Opti-MEM supplemented with penicillin (100 U/mL), streptomycin (100 µg/mL) and 0.1% DMSO for 16 h before luciferase activity was measured using the Dual-Glo Luciferase Assay System (Promega) according to the manufacturer's protocol on a Tecan Spark luminometer (Tecan Deutschland GmbH, Crailsheim, Germany). Firefly luminescence was divided by Renilla luminescence and multiplied by 1000 resulting in relative light units (RLU) to normalize for transfection efficiency and cell growth. Fold activation was obtained by dividing the mean RLU of test compound by the mean RLU of the untreated control. All samples were tested in at least three biologically independent experiments in duplicates. […]

NOR-1 = target: T2, NOR-1 (Homo sapiens, UniProt Q92570); test: Gal4 hybrid reporter gene assay, selectivity profiling (NOR-1); assay type: cell-based; conditions: result in words, at 10 µM
T2 construct: pFA-CMV-NOR-1-LBD; expressed in transfected cells; host or cells: HEK293T
T2 sequence (Q92570 394-623 limits assumed): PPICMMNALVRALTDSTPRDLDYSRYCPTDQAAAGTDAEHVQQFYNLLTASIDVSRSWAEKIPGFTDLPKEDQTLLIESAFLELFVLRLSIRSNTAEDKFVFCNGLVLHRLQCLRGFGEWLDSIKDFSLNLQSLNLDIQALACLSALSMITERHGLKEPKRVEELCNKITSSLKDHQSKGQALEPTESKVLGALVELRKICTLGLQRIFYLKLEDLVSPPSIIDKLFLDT

Nurr1 monomer (NBRE) = target: T3, Nurr1 monomer (NBRE) (Homo sapiens, UniProt P43354); test: Full-length Nurr1 reporter gene assay, response element NBRE; assay type: cell-based; conditions: result in words, at 10 µM
T3 construct: The full length human nuclear receptor Nurr1 (pcDNA3.1-hNurr1-NE; Addgene plasmid #102363); NE (suffix in the plasmid name); host or cells: HEK293T
T3 sequence (P43354 whole entry): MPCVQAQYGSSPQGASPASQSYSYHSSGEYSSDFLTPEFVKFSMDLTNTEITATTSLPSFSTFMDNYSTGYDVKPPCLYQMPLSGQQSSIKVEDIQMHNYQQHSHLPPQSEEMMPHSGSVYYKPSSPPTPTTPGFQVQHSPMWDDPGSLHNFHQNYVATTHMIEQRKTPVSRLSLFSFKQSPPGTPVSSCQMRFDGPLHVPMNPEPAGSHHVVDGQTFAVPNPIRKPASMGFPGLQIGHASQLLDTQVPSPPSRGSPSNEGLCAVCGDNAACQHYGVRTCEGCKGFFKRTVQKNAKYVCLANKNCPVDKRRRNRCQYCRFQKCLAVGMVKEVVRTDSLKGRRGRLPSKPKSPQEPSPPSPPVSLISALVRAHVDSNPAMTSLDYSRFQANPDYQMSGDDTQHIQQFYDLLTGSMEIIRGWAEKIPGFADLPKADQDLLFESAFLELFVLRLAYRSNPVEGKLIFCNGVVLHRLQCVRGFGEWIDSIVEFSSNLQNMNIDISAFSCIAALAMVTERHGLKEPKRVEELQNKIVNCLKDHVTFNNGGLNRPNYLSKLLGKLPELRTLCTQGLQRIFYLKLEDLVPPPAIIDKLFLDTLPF
Excerpt: (§1) Full-length Nurr1 reporter gene assays. Activation of full length human Nurr1 was studied in transiently transfected HEK293T cells using the reporter plasmids pFR-Luc-NBRE^14, pFR-Luc-POMC^14 or pFR-Luc-DR5^14 each containing one copy of the respective human Nurr1 response element NBRE Nl3, NurRE, or DR5. The full length human nuclear receptor Nurr1 (pcDNA3.1-hNurr1-NE; Addgene plasmid #102363) and, for DR5, RXRα (pSG5-hRXR)^44 were overexpressed. pRL-SV40 (Promega) was used for normalization of transfection efficacy and to observe test compound toxicity. […] After 24 h, medium was changed to Opti-MEM without supplements and cells were transiently transfected using Lipofectamine LTX reagent (invitrogen) according to the manufacturer's protocol. Five hours after transfection, cells were incubated with the test compounds in Opti-MEM supplemented with penicillin (100 U/mL), streptomycin (100 µg/mL) and 0.1% DMSO for 16 h before luciferase activity was measured using the Dual-Glo Luciferase Assay System (Promega) according to the manufacturer's protocol on a Tecan Spark luminometer (Tecan Deutschland GmbH). Firefly luminescence was divided by Renilla luminescence and multiplied by 1000 resulting in relative light units (RLU) to normalize for transfection efficiency and cell growth. […]

Nurr1 homodimer (NurRE) = target: T4, Nurr1 homodimer (NurRE) (Homo sapiens, UniProt P43354); test: Full-length Nurr1 reporter gene assay, response element NurRE; assay type: cell-based; conditions: result in words, at 10 µM
T4 construct: The full length human nuclear receptor Nurr1 (pcDNA3.1-hNurr1-NE; Addgene plasmid #102363); host or cells: HEK293T
T4 sequence (P43354 whole entry): as above
Excerpt: as §1

[2] = target: T5, Nurr1-RXR heterodimer (DR5) (Homo sapiens, UniProt P43354); test: Full-length Nurr1 reporter gene assay, response element DR5 with RXRα; assay type: cell-based; conditions: result in words, at 10 µM
T5 construct: The full length human nuclear receptor Nurr1 (pcDNA3.1-hNurr1-NE; Addgene plasmid #102363); NE (suffix in the plasmid name); host or cells: HEK293T
T5 sequence (P43354 whole entry): as above
T5 sequence (P19793 whole entry partner): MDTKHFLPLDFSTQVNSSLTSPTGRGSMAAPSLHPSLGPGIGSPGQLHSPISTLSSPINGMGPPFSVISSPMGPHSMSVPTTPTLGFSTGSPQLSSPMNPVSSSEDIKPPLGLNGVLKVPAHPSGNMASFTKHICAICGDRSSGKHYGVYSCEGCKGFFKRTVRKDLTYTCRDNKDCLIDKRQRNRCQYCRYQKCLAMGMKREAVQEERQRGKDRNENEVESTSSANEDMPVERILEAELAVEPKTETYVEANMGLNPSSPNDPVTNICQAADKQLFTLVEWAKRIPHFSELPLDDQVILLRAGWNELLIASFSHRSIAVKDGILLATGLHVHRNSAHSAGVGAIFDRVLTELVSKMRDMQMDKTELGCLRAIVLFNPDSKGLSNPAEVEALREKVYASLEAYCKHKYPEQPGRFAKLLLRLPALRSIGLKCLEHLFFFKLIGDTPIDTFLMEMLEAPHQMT
Excerpt: Full-length Nurr1 reporter gene assays. Activation of full length human Nurr1 was studied in transiently transfected HEK293T cells using the reporter plasmids pFR-Luc-NBRE^14, pFR-Luc-POMC^14 or pFR-Luc-DR5^14 each containing one copy of the respective human Nurr1 response element NBRE Nl3, NurRE, or DR5. The full length human nuclear receptor Nurr1 (pcDNA3.1-hNurr1-NE; Addgene plasmid #102363) and, for DR5, RXRα (pSG5-hRXR)^44 were overexpressed. pRL-SV40 (Promega) was used for normalization of transfection efficacy and to observe test compound toxicity. […] After 24 h, medium was changed to Opti-MEM without supplements and cells were transiently transfected using Lipofectamine LTX reagent (invitrogen) according to the manufacturer's protocol. Five hours after transfection, cells were incubated with the test compounds in Opti-MEM supplemented with penicillin (100 U/mL), streptomycin (100 µg/mL) and 0.1% DMSO for 16 h before luciferase activity was measured using the Dual-Glo Luciferase Assay System (Promega) according to the manufacturer's protocol on a Tecan Spark luminometer (Tecan Deutschland GmbH). Firefly luminescence was divided by Renilla luminescence and multiplied by 1000 resulting in relative light units (RLU) to normalize for transfection efficiency and cell growth. Fold activation was obtained by dividing the mean RLU of test compound by the mean RLU of the untreated control. All samples were tested in at least three biologically independent experiments in duplicates. For dose-response curve fitting and calculation of EC50 values, the equation "[Agonist] vs. response -- Variable slope (four parameters)" was used in GraphPad Prism (version 7.00, GraphPad Software).

Nurr1 LBD = target: T6, Nurr1 LBD (Homo sapiens, UniProt P43354); test: Isothermal titration calorimetry (ITC); assay type: binding; conditions: result in words; ITC with 100 µM 29 and 30 µM protein
T6 construct: Nurr1 LBD protein (10-30 µM, expressed as described previously^21); made in house
T6 sequence (P43354 360-595 limits assumed): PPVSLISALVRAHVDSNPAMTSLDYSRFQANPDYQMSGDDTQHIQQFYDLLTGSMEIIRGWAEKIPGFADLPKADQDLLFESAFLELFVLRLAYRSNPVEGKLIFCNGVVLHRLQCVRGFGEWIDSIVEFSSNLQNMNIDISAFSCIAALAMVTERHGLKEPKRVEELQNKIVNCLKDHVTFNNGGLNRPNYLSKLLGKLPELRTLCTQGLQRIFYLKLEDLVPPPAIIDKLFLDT
Procedure: Isothermal Titration Calorimetry (ITC). ITC experiments were conducted on an Affinity ITC instrument (TA Instruments, New Castle, DE) at 25°C with a stirring rate of 75 rpm. Nurr1 LBD protein (10-30 µM, expressed as described previously^21) in buffer (20 mM Tris pH 7.5, 100 mM NaCl, 5% glycerol) containing 1-4% DMSO was titrated with the test compounds (60-150 µM in the same buffer containing 1-4% DMSO) in 26 injections (1x 1 µL, 25x 3-4 µL) with an injection interval of 150 s. As control experiments, the test compounds were titrated to the buffer, and the buffer was titrated to the Nurr1 LBD protein under otherwise identical conditions. Results were analyzed using NanoAnalyze software (version 3.11.0, TA Instruments, New Castle, DE) with independent binding models.

[3] = system: Nurr1-regulated tyrosine hydroxylase (TH), vesicular amino acid transporter 2 (VMAT2) and superoxide dismutase 2 (SOD2) in astrocytes (T98G); test: Nurr1-regulated gene expression in T98G cells (qPCR); assay type: cell-based, human; conditions: 10 µM
[4] = Determination of aqueous solubility; assay type: physicochemical; conditions: water, 24 h, 25°C
Procedure: Determination of aqueous solubility. […] The mixture was agitated in a VWR Thermal Shake lite (VWR International GmbH, Darmstadt, Germany) for 24 h at 600 rpm and constant temperature of 25°C. The supersaturated mixtures were subsequently centrifuged at 23.300 rpm for 15 min (25 °C). Part of the supernatant was taken off for quantification by UV absorbance at 312 nm with external calibration. The external calibration samples contained 1% DMSO and the test samples were spiked with DMSO to 1% concentration right before the measurement. Absorbance was measured with a Tecan Spark luminometer (Tecan Deutschland GmbH, Crailsheim, Germany). The solubility test was repeated in three independent experiments, […]

Nurr1 [5] = target: T7, Nurr1 (Homo sapiens, UniProt P43354); test: Gal4-Nurr1 hybrid reporter gene assay in HEK293T cells; assay type: cell-based; design: expressed in transfected cells; host or cells: HEK293T
Procedure: Hybrid reporter gene assays. Nurr1 modulation was determined in a Gal4 hybrid reporter gene assay in HEK293T cells (German Collection of Microorganisms and Cell Culture GmbH, DSMZ) using pFR-Luc (Stratagene, La Jolla, CA, USA; reporter), pRL-SV40 (Promega, Madison, WI, USA; internal control) and pFA-CMV-hNurr1-LBD^14, coding for the hinge region and ligand binding domain of the canonical isoform of human Nurr1. […] After 24 h, medium was changed to Opti-MEM without supplements and cells were transiently transfected using Lipofectamine LTX reagent (Invitrogen, Carlsbad, CA, USA) according to the manufacturer's protocol. Five hours after transfection, cells were incubated with the test compounds in Opti-MEM supplemented with penicillin (100 U/mL), streptomycin (100 µg/mL) and 0.1% DMSO for 16 h before luciferase activity was measured using the Dual-Glo Luciferase Assay System (Promega) according to the manufacturer's protocol on a Tecan Spark luminometer (Tecan Deutschland GmbH, Crailsheim, Germany). Firefly luminescence was divided by Renilla luminescence and multiplied by 1000 resulting in relative light units (RLU) to normalize for transfection efficiency and cell growth. Fold activation was obtained by dividing the mean RLU of test compound by the mean RLU of the untreated control. All samples were tested in at least three biologically independent experiments in duplicates. For dose-response curve fitting and calculation of EC50 values, the equation "[Agonist] vs. response -- Variable slope (four parameters)" was used in GraphPad Prism (version 7.00, GraphPad Software, La Jolla, CA, USA). Selectivity profiling was performed with identical procedures using pFA-CMV-Nur77-LBD^14, pFA-CMV-NOR-1-LBD^14, pFA-CMV-THRα-LBD^39, pFA-CMV-RARα-LBD^40, pFA-CMV-PPARα-LBD^41, pFA-CMV-PPARγ-LBD^41, pFA-CMV-PPARδ-LBD^41, pFA-CMV-LXRα-LBD^37, pFA-CMV-FXR-LBD^42 and pFA-CMV-hRXRα-LBD^43.
Target sequence in this assay (P43354 360-595 limits assumed): as above

Nurr1 [6] = target: T7, Nurr1; test: Ligand efficiency metrics; conditions: computed according to ref. 29
Target sequence in this assay (P43354 whole entry, the tested form may be a part, canonical isoform): as the sequence (P43354 whole entry) above

Nurr1 [7] = target: T7, Nurr1; conditions: Nurr1 agonism, literature values (refs. 24, 27, 28); cited from earlier work
Target sequence in this assay (P43354 whole entry, the tested form may be a part, canonical isoform): as the sequence (P43354 whole entry) above

T1 sequence (P22736 360-595 limits assumed): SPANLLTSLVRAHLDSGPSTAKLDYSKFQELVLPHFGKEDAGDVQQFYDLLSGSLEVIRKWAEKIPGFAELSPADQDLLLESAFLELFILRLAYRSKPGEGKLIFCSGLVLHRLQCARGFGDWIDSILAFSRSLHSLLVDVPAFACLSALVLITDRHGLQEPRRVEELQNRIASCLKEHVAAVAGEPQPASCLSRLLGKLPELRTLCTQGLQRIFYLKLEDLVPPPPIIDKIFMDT

Compound: Cc1[nH]c2c(Cl)cccc2c1N [Compound 6, 7-chloro-2-methyl-1H-indol-3-amine]
- stability [1]: not stable; also recorded: unstable

Compound: Cc1nc2c(Cl)cccn2c1NC(=O)c1ccc(-c2ccccc2)[nH]1 [Compound 29]
- EC50(Nur77) (Nur77): no effect; also recorded: no activation (10 µM)
- EC50(NOR-1) (NOR-1): no effect; also recorded: no activation (10 µM)
- EC50(NBRE) (Nurr1 monomer (NBRE)): no activation (10 µM)
- EC50(NurRE) (Nurr1 homodimer (NurRE)): no activation (10 µM)
- EC50(DR5) [+0.1 µM BEX] [2]: no activation (10 µM)
- Kd(Nurr1 LBD) (Nurr1 LBD): no detectable binding; also recorded: no binding ^b
- induction of Nurr1-regulated gene expression [3]: no effect; also recorded: no induction
- aq. solubility [4]: 4.1 µg/mL
- less active than 36 as Nurr1 modulator (Nurr1 [5]): more than 100 fold
- EC50(Nurr1) (max. activation) (Nurr1 [5]; result in words, at 10 µM): no Nurr1 agonism; also recorded: inactive (10 µM); also recorded: no activation (10 µM)

Compound: CCN(CC)Cc1cc(Nc2ccnc3cc(Cl)ccc23)ccc1O [Compound 1, amodiaquine]
- ligand efficiency (LE) (Nurr1 [6]): 0.26
- size-independent ligand eff. (SILE) (Nurr1 [6]): 1.79
- EC50 (Nurr1 [7]): ~20 µM

From EP4596548A1, “NURR1 MODULATORS” (Ludwig-Maximilians-Universität, priority 2024, dated 2025)
